Measured values as given in patent US5900434A, “Method for inhibiting the production of interleukin-1 or tumor necrosis factor-α by administering acanthoic acid” (Korea Institute of Science and Technology, priority 1994, dated 1999).

How the values were obtained:
[1] = test system: collagen in rat pulmonary tissue; assay: Inhibition of collagen synthesis in rat pulmonary tissues (hydroxyproline); type: in vivo; conditions: rat pulmonary tissue treated with silica, DMSO and acanthoic acid; normal = 100%; FIG. 8
Procedure: IL-1 and TNF-α are known as cytokines which cause fibrosis and induce collagen synthesis in rat fibroblast(Kang, H. S., et al., Korean. J. Immunol., 14, 193(1992)). For the purpose of confirming the ability of acanthoic acid to suppress the action of IL-1 and TNF-α, its inhibitory effect on the collagen synthesis in rat pulmonary fibroblast and pulmonary tissues was determined. The amount of produced collagen in the culture of rat pulmonary fibroblast was measured by an indirect ELISA method, and that of pulmonary tissue was determined by measuring the concentration of hydroxyproline and calculating the amount of collagen therefrom by using the standard curve of internal control group. Further, for the purpose of determining the amount of synthesized collagen in rat pulmonary tissues, the amount of hydroxyproline was measured as follows. 0.1 to 0.2 g of the rat pulmonary tissue was mixed with 1 ml of PBS and then crushed in a Pyrex tube(Corning, Rochester, N.Y., U.S.A.). […] The resultant was freezed in a freezer, lyophilized in a freeze-dryer(Labconco) and dissolved completely in 1 ml of distilled water. 50 μl of the resulting solution was diluted with 50 μl of distilled water in a microcentrifuge tube. […] O.D. of the sample was measured at 650 nm, and the amount of hydroxyproline in the sample was calculated by employing the standard curve of internal control group.

[2] = test system: O2^- production in human neutrophils; assay: Production of O2^- in human neutrophils (PMA-stimulated); type: cell-based
Procedure: Normal human peripheral blood was heparin-treated and diluted with equal amount of Hank's balanced salt solution (HBSS: Ca^2+ and Mg^2+ free). The diluted blood was put into a centrifuge tube containing therein Ficoll-Hypaque(Sigma, St. Louis, Mo., U.S.A.) layer having a density of 1.077 piled up on Ficoll-Hypaque layer having a density of 1.119, and then centrifuged at 700×g for 30 minutes to obtain monocytes from the layer between Ficoll-Hypaque layer having a density of 1.077 and serum layer, and neutrophils from the layer between Ficoll-Hypaque layer having a density of 1.077 and that having a density of 1.119. The separated cells were washed twice with 4° C. HBSS(Ca^2+ and Mg^2+ free) and suspended in RPMI 1640 medium(Gibco, Grand Island, N.Y., U.S.A.) containing 10% fetal bovine serum(FBS, Hyclone, Logan, Utah, U.S.A.). The suspensions were added to the wells of 24-well incubation plate(Costar, Cambridge, Mass., U.S.A.) and incubated at 37° C. for 2 hours to obtain monocytes, macrophages and neutrophils. Inflammatory responses are known as a cascade reaction comprising the secretion of various cytokines, e.g., IL-1, from immune cells stimulated by various stimulants; production of phospholipase A2, lysosomal enzyme, reactive oxygen species, etc. by other immune cells stimulated by said cytokines; and damage of tissues induced by the above products(Pruzanski, W. and […]., Immunol. Today, 12, 143(1991)). The ability of acanthoic acid to block the inflammatory reactions was tested by measuring their inhibitory activity to the production of reactive oxygen species, i.e., H2 O2 and O2^-. For the purpose of measuring the amount of produced O2^-, neutrophils suspended in RPMI 1640 medium in a concentration of 1×10^6 cells/800 μl was added to a part of the wells of 24-well plate and 10 μg/ml of superoxide dismutase(SOD, Sigma) was added to the empty wells. The plate was stored at 37° C. for 2 minutes, and cytochrome C(3 mg/ml, Sigma) was added to the wells in a concentration of 100 μl/well. The cells were treated with 10, 20 and 50 μg/ml of acanthoic acid for an hour and reacted at 37° C. for 20 minutes by introducing 10^-7 PMA as a stimulant. The reaction was terminated by adding 1 mM N-ethylmaleimide(Sigma) to the wells and the culture was centrifuged at 1,600×g for 10 minutes to obtain a supernatant. The change of color of the supernatant caused by the reduction of cytochrome C was measured at 550 nm by using a UV-Visible spectrophotometer (Kontron Instrument, Milano, Italy). The amount of produced O2^- was represented by the concentration of SOD which can suppress the reduction of cytochrome C in 1×10^6 cells for 20 minutes, by employing the extinction coefficient of cytochrome C(E550 nm =1.83×10^4 […] cm^-1).

C=C[C@@]1(C)CC=C2C(CCC3[C@](C)(C(=O)O)CCC[C@@]23C)C1 (single isomer, unassigned; (-)) [acanthoic acid, (-)-pimara-9(11),15-diene-19-oic acid]
decrease of amount of synthesized collagen [1]: about 50% | inhibition at 50 µg/mL ([2]; Neutrophil, 50 μg/ml, PMA): 72% | activity at 10 µg/mL ([2]; Neutrophil, 20 min, PMA + acanthoic acid 10 μg/ml, PMA = 100, read-out: Amount of produced reactive oxygen species, O2^- (% to the control group)): 76.8% | activity at 20 µg/mL ([2]; Neutrophil, 20 min, PMA + acanthoic acid 20 μg/ml, PMA = 100, read-out: Amount of produced reactive oxygen species, O2^- (% to the control group)): 31.6% | activity at 50 µg/mL ([2]; Neutrophil, 20 min, PMA + acanthoic acid 50 μg/ml, PMA = 100, read-out: Amount of produced reactive oxygen species, O2^- (% to the control group)): 28.4% | Amount of produced reactive oxygen species, O2^- ([2]; PMA + acanthoic acid 10 μg/ml): 11.9 nM/20 min. | Amount of produced reactive oxygen species, O2^- ([2]; PMA + acanthoic acid 20 μg/ml): 4.9 nM/20 min. | Amount of produced reactive oxygen species, O2^- ([2]; PMA + acanthoic acid 50 μg/ml): 4.4 nM/20 min.
